Reference: patent publication US20110059885A1, “TREATMENT OF DISEASES AND CONDITIONS MEDIATED BY EICOSANOIDS” (Natural Environment Research Council, priority 2008, published 2011)
Values belong to the molecule of their own block, whether it stands above or below them.

Columns and labels:
Human BLT2 = target: T1, Human BLT2 (Homo sapiens, UniProt Q9NPC1); settings: cited from earlier work
T1 sequence (Q9NPC1 1-358): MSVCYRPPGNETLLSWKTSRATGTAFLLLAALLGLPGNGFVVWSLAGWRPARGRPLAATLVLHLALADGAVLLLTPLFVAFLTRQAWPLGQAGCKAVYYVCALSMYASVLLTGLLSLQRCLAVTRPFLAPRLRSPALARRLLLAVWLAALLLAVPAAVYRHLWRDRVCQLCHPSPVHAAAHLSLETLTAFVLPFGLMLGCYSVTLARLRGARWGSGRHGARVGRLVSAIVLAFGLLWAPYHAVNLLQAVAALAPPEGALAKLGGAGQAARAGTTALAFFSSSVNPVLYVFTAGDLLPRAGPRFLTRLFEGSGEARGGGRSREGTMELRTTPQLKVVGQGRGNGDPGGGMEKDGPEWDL

[1] = tested on: immune complex induced lung injury; test: Immune complex induced lung disease (intranasal anti-Ova antibody); assay type: in vivo, mouse
Procedure: Recombinant OmCI was given at 0, 50, 100 and 250 μg intravenously together with 300 μg Ova containing 0.3% Evans blue (EB). […] MK886 is a leukotriene synthesis inhibitor. MK886 was administered with 300 μg Ova containing 0.3% Evans blue (EB) as a positive control.

[2] = tested on: LTB4 induced skin reaction; test: Local skin reaction induced by topical application of LTB4; assay type: in vivo, human
Procedure: Reactions appear after 12 hours and peak at 24-48 hours.
The solutions were then applied to the flexor surface of the forearm and air dried. […] The deposits were occluded under a chamber which was removed after 6 hours. Skin reactions were observed from 12-96 hours.
Solutions were incubated for 10 minutes at room temperature then applied to the flexor surface of the forearm and air dried. […] The deposits were occluded under a chamber which was removed after 6 hours. Skin reactions were observed from 12-96 hours.

[3] = LTB4 binding by UV absorbance after ultrafiltration
Procedure: The mixture was concentrated to 200 μl in Vivaspin (Sartorious) 5 kDa cut off ultrafiltration device. The retentate was washed with a further 30 mL of PBS and concentrated to 200 μl. In parallel, the same amount (4.5 mg) of bOmCI was incubated with 1.8 ml ultrapure ethanol in 39 mL PBS, then concentrated and washed as described above. The final volume of the concentrated proteins was 200 μl. UV absorption spectra of the proteins were examined using a Nanodrop ND-1000 Spectrophotometer.

[4] = Competitive EIA for cysteinyl leukotriene binding; settings: data not shown
Procedure: (§1) 100 μl of the standard solutions were mixed with ≦90 of PBS or diluted stock solutions of OmCI or RaHBP2. The mixtures were incubated at room temperature for 20 minutes then used in the immunoassays in accordance with the manufacturers instructions. The absorbance readings of the treated samples were compared with a standard curve to estimate the concentration of eicosanoids available in solution for binding by the anti-eicosanoid polyclonal antibodies.

[5] = Competitive EIA for LTB4 with unlabelled LTB4; assay type: binding; settings: 750 pg/mL LTB4 added (FIG. 7)
Procedure: as §1

[6] = LTB4 EIA using only LTB4-AP conjugate as ligand; assay type: binding; settings: for comparison of LTB4-AP binding by yOmCI and bOmCI: equivalent concentrations (FIG. 9)
Procedure: as §1

[7] = Competitive EIA for thromboxane B2 binding
Procedure: as §1

[8] = Competitive enzyme immunoassay (EIA) for 12(S)-HETE binding; settings: for proportion of 12(S)-HETE bound: 634 molar excess OmCI to 12(S)-HETE, 12500 pg/mL 12(S)-HETE (FIG. 5)
Procedure: Competitive enzyme immunoassays (EIAs) from Assay Designs Inc. are available for the quantification of a number of the eicosanoids. One such EIA kit uses a polyclonal antibody to 12(S)-HETE to bind 12(S)-HETE labelled with alkaline phosphatase and competing unlabelled 12(S)-HETE in the sample or standards of known concentration. After simultaneous incubation at room temperature and capture of the antibody on the plate, the excess reagents are washed away, the substrate added and reaction measured by microplate reader. The higher the concentration of 12(S)-HETE in sample or standard the lower the absorbance reading, because the unlabelled fatty acid competes for binding with the alkaline phosphatase labelled molecule.
12(S)-HETE EIA Kit was from Assay Designs (Cat. No. 900-050). OmCI stocks used were expressed either in yeast (yOmCI) or bacteria (bOmCI). Both stocks were ≧98% pure, 8.3 mg/mL in phosphate buffered saline pH 7.2 (PBS). The negative control tick histamine binding protein RaHBP2, which is also a lipocalin (Paesen et al., 1999), was expressed in bacteria and was also ≧98% pure, 8.3 mg/mL in PBS. 12(S)-HETE standard was diluted to 50000, 12500, 3125, 781, 195 pg/mL in the assay buffer supplied with the kit. 100 μl of the 12500, 3125 and 0 pg/mL solutions were mixed with ≦9 μl of phosphate buffered saline pH 7.2 (PBS) or solutions of OmCI or RaHBP2 in PBS. The mixtures were incubated at room temperature for 20 minutes then used in the 12(S)-HETE immunoassay in accordance with the manufacturers instructions. The absorbance readings of the treated samples were compared with a standard curve to estimate the concentration of 12(S)-HETE available in solution for binding by the anti-12(S)-HETE polyclonal antibody.
Similar methods to those described in Example 1 were used.

[9] = 50 μg intravenous (legend of FIG. 16)
[10] = 100 μg intravenously 15 min prior to intranasal OVA antibody
[11] = Example 5, bOmCI 33×, 16×, 7×, 2× or ovalbumin 15×, 3×, 1× molar excess, forearm (FIG. 12)
[12] = AP conjugate only, data not shown

Molecule: CCCCC/C=C\C[C@@H](O)/C=C/C=C/C=C\[C@@H](O)CCCC(=O)O [LTB4, leukotriene B4]
lower affinity of BLT2 than BLT1 for LTB4 (Human BLT2): 20 fold

Molecule: CC(C)c1ccc2c(c1)c(SC(C)(C)C)c(CC(C)(C)C(=O)O)n2Cc1ccc(Cl)cc1 [MK886, reference compound]
microvascular damage and inflammation ([1]; positive control (FIG. 16)): reduced dramatically

Molecule: OmCI preloaded with LTB4: bOmCI with LTB4 loaded into the binding pocket (example 6)
inhibitory effect on immune complex induced disease after saturation of the LTB4 binding site ([1]; OmCI preloaded with LTB4 (FIG. 16)): attenuated the inhibitory effect of OmCI although it did not abrogate the response
skin reaction induced by 100 ng LTB4 ([2]; Example 8, 4:1 molar ratio, preloaded protein): did not prevent the skin reaction

Molecule: OmCI: soft tick derived complement (C) inhibitor of Ornithodoros moubata, SEQ ID NO: 2 / 3; binds C5 and LTB4
LTB4 binding stoichiometry and affinity ([3]; conclusion from examples 6 and 7): binds to a single molecule of LTB4 with high affinity
dose dependence of effect ([1]; 0, 50, 100 and 250 μg intravenously, data not shown): dose dependent
neutrophil recruitment in the lung [1, 9]: reduces neutrophil recruitment in the lung
vascular permeability and protein exudation [1, 9]: decreases vascular permeability and protein exudation
neutrophil recruitment in the lung [1, 10]: reduced neutrophil recruitment in the lung
pulmonary microvascular damage and protein exudations in the bronchoalveolar space [1, 10]: reduced protein exudations
skin reaction induced by 100 ng LTB4 [2, 11]: completely ablated
skin reaction induced by 100 ng LTB4 ([2]; Example 8, 4:1 to 1:1 molar ratio (FIG. 15)): ablated the skin reaction
lesion formation compared to LTB4 alone ([2]; Example 8, molar ratios 0.5:1 and less): no effect on lesion formation

Molecule: Ovalbumin: negative control protein ovalbumin (Mr 45 kDa) [reference compound]
skin reaction induced by 100 ng LTB4 [2, 11]: no effect on lesion formation
lesion formation ([2]; Example 8, negative control protein): no inhibitory effect on lesion formation

direct binding of cys-LK-AP conjugate ([4]; AP conjugate only): not bound directly
binding of Cys-LKs [4]: does not appear to bind
competition of excess 12(S)-HETE with LTB4-AP binding ([6]; 8.24 μg bOmCI (FIG. 10)): does not outcompete
binding to LTB4-AP ([6]; dilution series, 50 μL LTB4-AP, no unlabelled LTB4 (FIG. 8)): dose dependent binding
comparison of LTB4-AP binding by yOmCI and bOmCI [6]: fairly similar
binding of TXB2 ([7]; 3333 pg/mL TXB2 (FIG. 6)): does not appear to bind
direct binding of TXB2-AP conjugate [7, 12]: not bound directly
proportion of 12(S)-HETE bound [8]: 97%
direct binding of 12(S)-HETE-AP conjugate [8, 12]: not bound directly
Molecule: bOmCI: bacterial expressed OmCI
estimated concentration of LTB4 in solution [5]: 10000 pg/mL
LTB4 bound from solution ([3]; 1:1 molar ratio OmCI:LTB4, flow through of ultrafiltration (FIG. 13A)): all the LTB4 added to initial mixture was bound
amount of protein that binds approximately 50% of the LTB4-AP ([6]; FIG. 8): 0.33 µg
excess of protein needed to bind 50% of the LTB4-AP ([6]; calculated assuming 100% conjugation efficiency and IC50=1:1 binding): 1200 ×
amount of 12(S)-HETE available in solution for antibody binding ([8]; 20 min preincubation with 12500 pg/mL 12(S)-HETE, 41.2 μg protein (FIG. 2)): decreases the amount of 12(S)-HETE available in solution
effect of prolonged incubation on proportion of 12(S)-HETE bound ([8]; overnight at room temperature (FIG. 4)): does not increase the proportion of 12(S)-HETE bound

comparison of LTB4-AP binding by yOmCI and bOmCI [6]: fairly similar
proportion of 12(S)-HETE bound [8]: roughly 50%
Molecule: yOmCI: yeast expressed OmCI
